For data set [1] the following is noted: prior art; cited from earlier work.
For data set [2] the following is noted: found by V. H. Wallingford; cited from earlier work.
Data set [3] in a line: Water solubility. The data set is classed as physicochemical. The following applies: for solubility: water.
Data set [4] can be described thus: Acute Intravenous Toxicity Studies in Mice. The settings on record: mouse, in vivo, iv, meglumine salt solution, 28.27% iodine, lateral tail vein, 1 ml/min, seven day observation; read-out: LD50 I.V. (Mice). The format is in vivo. On the procedure:
(§1) Satisfactory intravenous urograms are obtained when any of the preparations described in Examples 28-32 is administered to dogs at a dosage of 350 mg. I/kg. Toxicity evaluations by three different techniques were carried out on solutions of the meglumine salts of three 5-acetamido-N-[poly(hydroxyalkyl)alkyl]2,4,6-triiodoisophthalamic acids of the invention. The techniques utilized are outlined below.
(§2) Swiss Albino mice (Charles River) were dosed in the lateral tail vein with solutions of the iodinated compound containing 28.27% of iodine, injected at the rate of 1 ml/min. […] The LD50 values were calculated by the method of Litchfield and Wilcoxon (J. of Pharmac. and Exptl. Therap. 96: 99-113, 1949).

Data set [5] concerns mice. The experiment in a line: Intracerebral Toxicity in Mice. The data set is classed as in vivo, Swiss Albino mice (Charles River). The settings on record: meglumine salt solution, seven day observation. As for the experimental part: as §1
Swiss Albino mice (Charles River) were used. Fixed volumes of solutions of various concentrations of the iodinated compounds were injected intracerebrally via a 27 gauge needle, (1/4 inch length) according to the method of Haley, et al. (Br. J. of Pharmac. 12:12-15, 1957). The animals were observed immediately after injections and daily throughout a seven day observation period. The LD50 values were calculated by the method of Litchfield and Wilcoxon (J. of Pharmac. and Exptl. Therap. 96:99-113, (1949).

Data set [6] relates to rats. The experiment in a line: Intracisternal Toxicity in Rats. The format is in vivo, Sprague Dawley (Carworth) rats. The following applies: meglumine salt solution, two day observation. As for the experimental part:
as §1
Sprague Dawley (Carworth) rats were used. The method used was a variation of the procedure outlined by Melartin et al. (Invest. Rad. 5:13-21, 1970). After dosing, the animals were housed individually, and observed for immediate reactions and periodically for a two day observation period. The LD50 values were calculated according to the method of Litchfield and Wilcoxon, (J. of Pharmac. and Exptl. Therap. 96:99-115, 1949).

The test system of data set [7] is mice. The experiment in a line: Acute Intravenous Toxicity Studies in Mice. The data set is classed as in vivo. The following applies: meglumine salt solution, 28.27% iodine, lateral tail vein, 1 ml/min, seven day observation; 10080 min. On the procedure:
as §1, §2

[8] abbreviates: temperature not stated, read-out: solubility.

Several values for one entry are separate records, joined by “and”; a condition that tells them apart may be missing. Identical values can stand only once. Counter-ions that a name gives are not always drawn. Like-named read-outs stand apart in the source and are kept apart here.

As usually defined, the solubility is the concentration that dissolves in the medium under given conditions. What is called LD50 is the dose at which mortality reaches 50%.

As to `CC(=O)Nc1c(I)cc(I)c(C(=O)[O-])c1I.[Na+]`, in data set [1], the “toxicity (in words)” value is “unexpectedly low”. Besides, the “water solubility (in words)” value in data set [2] was “unexpectedly high”.
For `CC(=O)Nc1c(I)c(C(=O)O)c(I)c(C(=O)NC(CO)(CO)CO)c1I` [Example 7, meglumine salt of 5-acetamido-N-[tris(hydroxymethyl)methyl]-2,4,6-triiodoisophthalamic acid], in data set [3] (setting [8]), the solubility was more than 600 mg/mL.
On the same count and under the same terms, to `CC(CO)(CO)NC(=O)c1c(I)c(N)c(I)c(C(=O)O)c1I` [sodium salt of Example 9] belongs approximately 930 mg/mL.
In the case of `CC(=O)Nc1c(I)c(C(=O)O)c(I)c(C(=O)NC(C)(CO)CO)c1I` [Example 10, 5-Acetamido-N-[2-(1,3-dihydroxy-2-methyl) Propyl]-2,4,6-triiodoisophthalamic Acid], in data set [4], the LD50 at 168 h was found to be 4650 mg/kg. Further, in data set [5], the “LD50 Intracerebral (Mice)” value is reported as 790 mg. contained iodine/kg. anima. Further, the “LD50 Intracisternal (Rats)” value in data set [6] is on record as 242 mg. contained iodine/kg. anima.
`CC(=O)Nc1c(I)c(C(=O)O)c(I)c(C(=O)NC(C)(COC(C)=O)COC(C)=O)c1I` [Example 23, Sodium 5-acetamido-N-[(1,3-diacetoxy-2-methyl)-2-propyl]-2,4,6-triiodoisophthalamate]: the “crystallization of aqueous solution on standing” value in data set [3] (102.5% w/v solution, room temperature) was “No crystallization occurred”. Moreover, in data set [3] (setting [8]), the solubility was more than 1000 mg/mL.
`Nc1c(I)c(C(=O)O)c(I)c(C(=O)NC(CO)(CO)CO)c1I` [sodium salt of 5-amino-N-[tris-(hydroxymethyl)methyl]-2,4,6-triiodoisophthalamic acid]: the solubility in data set [3] (sodium salt, temperature not stated, read-out: water solubility) is approximately 800 mg/mL.
For the compound `CC(=O)Nc1c(I)c(C(=O)O)c(I)c(C(=O)NC(CO)(CO)CO)c1I` [Examples 4(A) and 5, 5-Acetamido-N-[tris(hydroxymethyl)methyl]-2,4,6-triiodoisophthalamic Acid], the LD50 at 168 h in data set [4] was determined as 6150 mg/kg. Further, the “LD50 I.V. (Mice)” value in data set [7] is given as 6200 mg. contained iodine/kg. anima. In addition, in data set [5], the “LD50 Intracerebral (Mice)” value is 700 mg. contained iodine/kg. anima and 638 mg. contained iodine/kg. anima. The “LD50 Intracisternal (Rats)” value in data set [6] is 151 mg. contained iodine/kg. anima.
Regarding `CC(=O)Nc1c(I)c(C(=O)O)c(I)c(C(=O)NCCO)c1I` [5-acetamido-2,4,6-triiodo-N-(2-hydroxyethyl)-isophthalamicacid, reference compound], in data set [4], the LD50 at 168 h was determined as 5810 mg/kg. For the same compound, in data set [5], the “LD50 Intracerebral (Mice)” value is listed as 174 mg. contained iodine/kg. anima. In data set [6], the “LD50 Intracisternal (Rats)” value is given as 49 mg. contained iodine/kg. anima.
For `COCC(=O)Nc1c(I)c(C(=O)O)c(I)c(C(=O)NC(CO)(CO)CO)c1I` [Example 26(d), 2,4,6-Triiodo-5-methoxyacetamido-N-[tris(hydroxymethyl)methyl]isophthalamic Acid], in data set [5], the “LD50 Intracerebral (Mice)” value is ~650 mg. contained iodine/kg. anima. The “LD50 Intracisternal (Rats)” value in data set [6] is given as ~150 mg. contained iodine/kg. anima.
For the compound `CC(=O)Nc1c(I)c(NC(C)=O)c(I)c(C(=O)O)c1I` [diatrizoic acid, 3,5-diacetamido-2,4,6-triiodobenzoic acid], in data set [1], the “toxicity (in words)” value is listed as “still further reduced toxicity as compared with acetrizoic acid”.
In the case of `COCC(=O)Nc1c(I)c(C(=O)[O-])c(I)c(C(=O)NC(CO)(CO)CO)c1I.[Na+]`, the solubility in data set [3] (sodium salt, 25° C., read-out: solubility in water) was approximately 674 mg/mL.
In the case of `CNC(=O)c1c(I)c(NC(C)=O)c(I)c(C(=O)O)c1I` [Iothalamic Acid, 5-acetamido-2,4,6-triiodo-N-methylisophthalamic acid, reference compound], in data set [4], the 50% lethal dose (LD50) at 168 h stood at 5740 mg/kg. Moreover, the “LD50 Intracerebral (Mice)” value in data set [5] is given as 280 mg. contained iodine/kg. anima. The “LD50 Intracisternal (Rats)” value in data set [6] is 86 mg. contained iodine/kg. anima.
As to `CC(=O)Nc1c(I)c(C(=O)O)c(I)c(C(=O)NC(C)(CO)CO)c1I` [Example 11, 5-Acetamido-N-[2-(1,3-dihydroxy-2-methyl)-propyl]-2,4,6-triiodoisophthalamic Acid, Sodium Salt], in data set [3] (setting [8]), the solubility was approximately 820 mg/mL.
For `CC(=O)Nc1c(I)c(C(=O)[O-])c(I)c(C(=O)NC(COC(C)=O)(COC(C)=O)COC(C)=O)c1I.[Na+]`, in data set [3] (sodium salt powder, read-out: solubility in water), the solubility was not below 1000 mg/mL.

Values taken from patent US4138589A, “Substituted isophthalamic acids” (Mallinckrodt, Inc., priority 1977, dated 1979).
